Assay [1] deals with T1, galectin-3 (Homo sapiens, UniProt P17931).
T1 construct: gene LGALS3; human recombinant galectin-3 expressed in E. coli
The assay is described as follows: intrinsic tryptophan fluorescence spectroscopy titration; also competitive ELISA against asialo-fetuin (IC50 […]) and CD. It is filed as binding. On the technique in general: In an ELISA, binding on a coated surface is turned into a signal by an enzyme label.

Assay [2] concerns the target T1, galectin-3. The assay is described as above. In kind it is binding. This is another data set of the same source.

The values below come from article PMC12482042, “Targeting galectin-3 in cancer by novel and unique inhibitors of non-carbohydrate origin” (Molecular Medicine, 2025).

Where two headings read alike, the source gives them in different places.

Usually Kd stands for a measure of binding affinity in units of concentration.

T1 sequence (P17931 2-250): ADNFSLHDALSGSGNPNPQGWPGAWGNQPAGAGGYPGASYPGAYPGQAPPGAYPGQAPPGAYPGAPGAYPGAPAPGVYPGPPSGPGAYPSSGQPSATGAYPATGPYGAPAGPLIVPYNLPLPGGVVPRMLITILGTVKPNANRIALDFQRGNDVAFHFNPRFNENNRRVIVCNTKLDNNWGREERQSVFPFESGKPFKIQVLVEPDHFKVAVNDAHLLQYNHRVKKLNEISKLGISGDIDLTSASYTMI

At galectin-3 [1], `C[C@H]1COc2c(N3CCN(C)CC3)c(F)cc3c(=O)c(C(=O)NNc4ccc(N)cc4)cn1c23` [K2] came in with a Kd of 18.1 ± 1.5 µM.
For the compound `C[C@H]1COc2c(N3CCN(C)CC3)c(F)cc3c(=O)c(C(=O)NNc4cccc(N)c4)cn1c23` [L2], the Kd on galectin-3 [2] stood at 30.2 ± 1.4 µM.
